Reference: patent US20250387381A1, “COMPOSITIONS AND METHODS FOR ENHANCED DRUG LOADING OF LONG-ACTING IN SITU FORMING IMPLANTS AND USES THEREOF” (The University of North Carolina at Chapel Hill, priority 2022, published 2025)
Values after ≈ are worked out from the molar mass of the structure shown.

What was measured:
[1] = RFB saturated solubility in DMSO and NMP with or without amphiphilic additives; conditions: for solubility at 1 day: organic solvent or mixture, thermodynamic from solid
[2] = Stability of LA-RFB formulations stored at room temperature in the dark; format: physicochemical; conditions: solution of RFB in DMSO without polymer, same storage
Description: At predetermined time points (3, 4, 6, 9, 12, 15 months of incubation) 10 μL of formulation was diluted in 1 mL of DMSO, then further diluted at 1:1000 in DMSO for analysis by UV-vis absorbance spectrometer and HPLC to measure the drug concentration and drug degradation. As a control, RFB dissolved in DMSO (20 μg mL^−1 RFB solution) was incubated in the dark at RT.

[3] = human, in vivo, po, 150 mg; cited from earlier work
Mtb = conditions: cited from earlier work

CO[C@H]1/C=C/O[C@@]2(C)Oc3c(C)c(O)c4c(c3C2=O)C2=NC3(CCN(CC(C)C)CC3)NC2=C(NC(=O)/C(C)=C\C=C\[C@H](C)[C@H](O)[C@@H](C)[C@@H](O)[C@@H](C)[C@H](OC(C)=O)[C@@H]1C)C4=O [RFB, Rifabutin]
Highest RFB solubility in DMSO with Kolliphor HS 15 ([1]; 0.45% Kolliphor HS 15): 564±7 mg RFB per mL of DMSO | solubility at 1 day ([1]; Highest RFB solubility in NMP with Kolliphor HS 15, 8.8% Kolliphor HS 15): 702 ± 10 mg/mL (≈ 829 mM) | solubility at 1 day ([1]; RFB maximum solubility in DMSO, DMSO alone, room temperature, mean±SD): 202 ± 22 mg/mL (≈ 238 mM) | solubility at 1 day ([1]; RFB maximum solubility in NMP, NMP without additive, room temperature, mean±SD): 148 ± 34 mg/mL (≈ 175 mM) | Residual RFB after 3 months [2]: 67% | Residual RFB after 4 months [2]: 53% | Residual RFB after 6 months [2]: 25% | Cmax [3]: 460 ng/mL | RFB MIC (Mtb): 0.064 µg/mL
